# Counter-ions that a name gives are not always drawn.
# System: A II-infused rat
# Assay: A II-infused rat model, antihypertensive action
# Assay type: in vivo
# Settings: 3 mg/kg id (duodenal); four hours post-administration; ganglion-blocked (mecamylamine), A II infusion 0.25 μg/kg/min
# Protocol: In accordance with their ability to antagonize angiotensin II, the compounds of this invention show antihypertensive action in the following A II-infused rat model. Rats are anesthetized with Dial-Urethane (0.60 mL/kg, ip) and the trachea cannulated with PE 240. Either one femoral artery and both femoral veins or the carotid artery and the corresponding jugular vein are cannulated with PE 50. If the jugular vein is cannulated, two cannulas are placed in the one vein. The initial portion of the duodenum (just distal to the stomach) is cannulated with PE 50 via a small midline incision. Arterial pressure and heart rate are measured from the arterial cannula. Ten to 15 min are allowed following surgery for stabilization of arterial pressure. Ganglion blockade is then produced by intravenous administration of mecamylamine at 3 mg/kg (1 mL/kg of a 3 mg/mL solution). Ganglion blockade causes a fall in arterial pressure of about 50 mmHg. Mecamylamine is given every 90 min throughout the remainder of the experiment. An A II infusion is then begun into the other venous cannula at 0.25 μg/kg/min (at 9.6 u Vmin). The A II infusion returns arterial pressure to or slightly above the control level. Once arterial pressure has stabilized with the A II infusion, baseline values for mean arterial pressure (MAP) and heart rate are taken. […]
row,SMILES,lowering of the A II dependent blood pressure (average) [%]
1,"Cc1nc(NCc2ccc(-c3ccccc3-c3nnn[nH]3)cc2)cc(C(F)(F)C(F)(F)F)n1 [Example 47, 2-Methyl-6-(pentafluoroethyl)-N-[[2'-(1H-tetrazol-5-yl)[1,1'-biphenyl]-4-yl]methyl]-4-pyrimidinamine sodium salt hydrate]",57

# Target: angiotensin II receptor
# Assay: rat adrenal receptor binding assay, displacement of radiolabeled angiotensin II (Inhibition of 125I Angiotensin II Binding)
# Settings: rat adrenal cortex membranes; 1 nM 125I-A II; 25° C.; 35 min
# Protocol: The high affinity of the compounds for the angiotensin II receptor was established using a rat adrenal receptor binding assay, measuring the displacement of radiolabeled angiotensin II from the receptor, described as follows: Anesthetize male Sprague-Dawley rats (300-400 g body weight) with CO2 and sacrifice by cervical dislocation. Dissect adrenal glands and keep in ice-cold sucrose buffer. (0.2M sucrose, 1 mM EDTA, 10 mM Trizma base, pH=7.2). Remove medulla by squashing. Mince the cortex, rinse and homogenize in a chilled ground glass tissue grinder with 15 ml sucrose buffer. Centrifuge at 3000× g for 10 min. (Sorvall RCSC centrifuge, SS34 rotor 6200 rpm). Decant supernatant through gauze. Centrifuge combined supernatants at 12,000× g for 13 min. (Beckman ultracentrifuge, 80Ti rotor, 13,000 rpm). […] (Beckman ultracentrifuge, 80Ti rotor, 38,200 rpm). All steps are carried out at 4° C. Resuspend the pellet in 0.5 mL assay buffer (50 mM Tris HCI, 5 mM MgCl2, 0.2% BSA (protease-free), pH= 7.4, 25° C.). Store on ice. Determine membrane protein by Lowry or Bradford assay with BSA as standard. The binding assay is performed in triplicate, in 12×75 mm plastic test tubes or in 96-well plate (final volume of 0.25 mL). Add 140 μL assay buffer. […] Add 50 μL membrane suspension (e.g., 10 μg protein). Preincubate for 30 min at 25° C. […] Incubate for 35 min at 25° C. Stop the incubation by adding 1 mL ice-cold buffer (assay buffer without BSA). Filter with GF/C filters on cell harvester (filters are presoaked in the assay buffer containing 1% polyethyleneimine). Rinse assay tubes 3× with 5 mL cold buffer (assay buffer without BSA). Cut and deposit the filter discs into test tubes and count on gamma counter for 1 min. […] Calculate the quantities of hot A II and the cold A II needed and make the dilution. Aliquot, seal tight, and store frozen until needed. Calculate the concentration of the total A II (hot+cold) after dilution. On the day of assay, thaw the frozen aliquot and adjust the volume to give a concentration of 5 pmole/mL (or 0.25 pmole/50 μL) with assay buffer (+protease-free BSA).
row,SMILES,IC50 [nM]
1,"CCc1cc(NCc2ccc(-c3ccccc3-c3nnn[nH]3)cc2)nc(C)n1 [Example 38, 6-Ethyl-2-methyl-N-[[2'-(1H-tetrazol-5-yl)[1,1'-biphenyl]-4-yl]methyl]-4-pyrimidinamine acetate trihydrate]",7.8
2,"Cc1nc(NCc2ccc(-c3ccccc3C(=O)O)cc2)cc(C(F)(F)C(F)(F)F)n1 [Example 50, 4'-[[[2-Methyl-6-(pentafluoroethyl)-4-pyrimidinyl]amino]methyl][1,1'-biphenyl]-2-carboxylic acid hemihydrate]",330
3,"Cc1nc(C(F)(F)F)nc(NCc2ccc(-c3ccccc3-c3nnn[nH]3)cc2)c1C(C)C [Example 35, 6-Methyl-5-(1-methylethyl)-N-[[2'-(1H-tetrazol-5-yl)[1,1'-biphenyl]-4-yl]methyl]-2-(trifluoromethyl)-4-pyrimidinamine sodium salt sesquihydrate]",3
4,"Cc1nc(C(F)(F)F)nc(NCc2ccc(-c3ccccc3-c3nnn[nH]3)cc2)c1Cc1ccccc1 [Example 45, 6-Methyl-5-(phenylmethyl)-N-[[2'-(1H-tetrazol-5-yl)[1,1'-biphenyl]-4-yl]methyl]-2-(trifluoromethyl)-4-pyrimidinamine sodium salt hydrate]",48
5,"Cc1cc(NCc2ccc(-c3ccccc3C(=O)O)cc2)nc(C(F)(F)F)n1 [Example 52, 4'-[[[6-Methyl-2-(trifluoromethyl)-4-pyrimidinyl]amino]methyl][1,1'-biphenyl]-2-carboxylic acid]",500
6,"Cc1nc(C)c(Cc2cccs2)c(NCc2ccc(-c3ccccc3-c3nnn[nH]3)cc2)n1 [Example 55, 2,6-Dimethyl-5-(2-thienylmethyl)-N-[(2'-(1H-tetrazol-5-yl)[1,1-biphenyl]-4-yl)methyl]-4-pyrimidinamine]",58
7,"CCCc1cnc(C(F)(F)F)nc1NCc1ccc(-c2ccccc2-c2nnn[nH]2)cc1 [Example 39, 5-Propyl-N-[[2'-(1H-tetrazol-5-yl)[1,1'-biphenyl]-4-yl]methyl]-2-(trifluoromethyl)-4-pyrimidinamine sodium salt hydrate]",49
8,"Cc1nc(NCc2ccc(-c3ccccc3C(=O)O)cc2)cc(C(F)(F)F)n1 [Example 51, 4'-[[[2-Methyl-6-(trifluoromethyl)-4-pyrimidinyl]amino]methyl][1,1'-biphenyl]-2-carboxylic acid sesquihydrate]",850
9,"CCc1cc(NCc2ccc(-c3ccccc3-c3nnn[nH]3)cc2)nc(C(F)(F)F)n1 [Example 36, 6-Ethyl-N-[[2'-(1H-tetrazol-5-yl)[1,1'-biphenyl]-4-yl]methyl]-2-(trifluoromethyl)-4-pyrimidinamine sodium salt sesquihydrate]",5.6

# Next, values leading:
row,IC50 [nM],SMILES
1,6.5,"CCc1nc(C(F)(F)F)nc(NCc2ccc(-c3ccccc3-c3nnn[nH]3)cc2)c1C(C)C [Example 40, 6-Ethyl-5-(1-methylethyl)-N-[[2'-1H-tetrazol-5-yl)[1,1'-biphenyl]-4-yl]methyl]-2-(trifluoromethyl)-4-pyrimidinamine sodium salt]"
2,25,"CCCc1c(C)nc(C(F)(F)F)nc1NCc1ccc(-c2ccccc2-c2nnn[nH]2)cc1 [Example 34, 6-Methyl-5-propyl-N-[[2'-(1H-tetrazol-5-yl)[1,1'-biphenyl]-4-yl]methyl]-2-(trifluoromethyl)-4-pyrimidinamine sodium salt hemihydrate]"
3,200,"Cc1nc(C)c(CC(=O)O)c(NCc2ccc(-c3ccccc3-c3nnn[nH]3)cc2)n1 [Example 56, [2,6-Dimethyl-N-[(2'-(1H-tetrazol-5-yl)[1,1-biphenyl]-4-yl)methyl]-4-pyrimidinamin-5-yl]acetic acid]"
4,11,"CCc1c(NCc2ccc(-c3ccccc3-c3nnn[nH]3)cc2)nc(C)nc1C(F)(F)C(F)(F)F [Example 43, 5-Ethyl-2-methyl-N-[[2'-(1H-tetrazol-5-yl)[1,1'-biphenyl]-4-yl]methyl]-6-(pentafluoroethyl)-4-pyrimidinamine sodium salt hydrate]"
5,38,"Cc1nc(NCc2ccc(-c3ccccc3-c3nnn[nH]3)cc2)cc(C(F)(F)C(F)(F)F)n1 [Example 47, 2-Methyl-6-(pentafluoroethyl)-N-[[2'-(1H-tetrazol-5-yl)[1,1'-biphenyl]-4-yl]methyl]-4-pyrimidinamine sodium salt hydrate]"
6,41,"Cc1cccc(Cc2c(NCc3ccc(-c4ccccc4-c4nnn[nH]4)cc3)nc(C)nc2C(F)(F)F)c1 [Example 42, 2-Methyl-5-[(3-methylphenyl)methyl]-N-[[2'-(1H-tetrazol-5-yl)[1,1'-biphenyl]-4-yl]methyl]-6-(trifluoromethyl)-4-pyrimidinamine sodium salt]"
7,39,"FC(F)(F)C(F)(F)c1cc(NCc2ccc(-c3ccccc3-c3nnn[nH]3)cc2)nc(C2CC2)n1 [Example 37, 2-Cyclopropyl-6-(pentafluoroethyl)-N-[[2'-(1H-tetrazol-5-yl)[1,1'-biphenyl]-4-yl]methyl]-4-pyrimidinamine hydrate]"
8,39,"C#CCc1c(C)nc(C)nc1NCc1ccc(-c2ccccc2-c2nnn[nH]2)cc1 [Example 57, 2,6-Dimethyl-5-(2-propynyl)-N-[(2'-(1H-tetrazol-5-yl)[1,1-biphenyl]-4-yl)methyl]-4-pyrimidinamine]"
9,20,"Cc1nc(NCc2ccc(-c3ccccc3-c3nnn[nH]3)cc2)c(C)c(C(F)(F)F)n1 [Example 44, 2,5-Dimethyl-N-[[2'-(1H-tetrazol-5-yl)[1,1'-biphenyl]-4-yl]methyl]-6-(trifluoromethyl)-4-pyrimidinamine hemihydrate]"
10,7.5,"C=CCc1c(C)nc(C)nc1NCc1ccc(-c2ccccc2-c2nnn[nH]2)cc1 [Example 53, 2,6-Dimethyl-5-(2-propenyl)-N-[(2'-(1H-tetrazol-5-yl)[1,1-biphenyl]-4-yl)methyl]-4-pyrimidinamine]"
11,16,C=CCc1c(C)nc(C(F)(F)F)nc1NCc1ccc(-c2ccccc2-c2nnn[nH]2)cc1 [Example 54]
12,61,"Cc1nc(NCc2ccc(-c3ccccc3-c3nnn[nH]3)cc2)cc(C(F)(F)F)n1 [Example 48, 2-Methyl-N-[[2'-(1H-tetrazol-5-yl)[1,1'-biphenyl]-4-yl]methyl]-6-(trifluoromethyl)-4-pyrimidinamine hydrate]"
13,2.5,"CCCc1c(CC)nc(C(F)(F)F)nc1NCc1ccc(-c2ccccc2-c2nnn[nH]2)cc1 [Example 46, 6-Ethyl-5-propyl-N-[[2'-(1H-tetrazol-5-yl)[1,1'-biphenyl]-4-yl]methyl]-2-(trifluoromethyl)-4-pyrimidinamine sodium salt]"
